For one test, the system named is senescent cells. Put plainly: Evaluation of senolytic effects of 25HC, oxysterols and 25HC analogs in cell culture. Particulars: cell type not stated. Format: cell-based. The text has this: Genetic knockdown of this gene kills senescent cells.
There are some commercially available analogs of 25HC such as oxysterols (Griffiths et al. (2019) Biochem Soc Trans., 47: 517-526).

Another test has as its system senescent FAPs. Put plainly: Cell viability assay on NS and SEN FAPs treated with 25HC. Type of test: cell-based, mouse. Particulars: 25HC started immediately after removing DMSO/Doxo (early-time point); treatment total 5 days; normalized to 0 uM. The protocol: Panel A) Timeline for DMSO/Doxo treatment and early-time point timeline for 25HC treatment on NS and SEN cells. 25HC treatment was started immediately after removing DMSO/Doxo. Panel B) Cell viability assay was performed on NS and SEN cells treated with different concentrations of 25HC. 25HC treatment was done for total 5 days. The value was normalized to that of 0 uM. The average value of 0 μM is expressed as 100% (Mean+/−SE, n=3, **p<0.01 and ***p<0.001 by student's t-test vs NS).

In a further test the test system is senescent mDFs. As to the kind of experiment: Cell viability assay on NS and SEN mDFs treated with 25HC. Format: cell-based, mouse. Particulars: treatment 72 hrs. The method, then:
Panel A) Timeline for DMSO/Doxo treatment and early-time point timeline for 25HC treatment on NS and SEN cells. 25HC treatment was started immediately after removing DMSO/Doxo. Panel B) Cell viability assay was performed on NS and SEN cells treated with different concentrations of 25HC. 25HC treatment was done for 72 hrs. (Mean+/−SD, n=3, *p<0.05, **p<0.01 vs 0 uM by student's t-test).
Panel A) Timeline for DMSO/Doxo treatment and late-time point timeline for 25HC treatment on NS and SEN cells. 25HC treatment was started 7 days after removing DMSO/Doxo. Panel B) Cell viability assay was performed on NS and SEN cells treated with different concentrations of 25HC. 25HC treatment was done for 72 hrs. (Mean+/−SD, n=6, **p<0.01, ***p<0.001, **** p<0.0001, vs 0 uM by student's t-test).

Test [1] addresses T1, CRYAB protein (Homo sapiens, UniProt P02511).
T1 sequence (P02511 1-175): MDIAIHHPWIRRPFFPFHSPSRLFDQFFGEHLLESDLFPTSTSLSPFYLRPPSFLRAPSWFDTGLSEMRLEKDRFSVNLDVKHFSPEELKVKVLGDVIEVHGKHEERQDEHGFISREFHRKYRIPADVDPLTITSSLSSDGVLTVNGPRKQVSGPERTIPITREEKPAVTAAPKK
The conditions noted are these: from Makley et al. (2015) / Xu et al. (2017); cited from earlier work.

Test [2] has as its target T1, CRYAB protein. Put plainly: Inhibition of CRYAB protein aggregation. The conditions noted are these: stated with reference to Example 1; no aggregation test described.

The structures appear in SMILES notation.

Turning to `C[C@H](CCCC(C)(C)O)[C@H]1CC[C@H]2[C@@H]3CC=C4C[C@@H](O)CC[C@]4(C)[C@H]3CC[C@]12C` [25HC, 25-hydroxycholesterol], in the test on senescent cells, the Senolytic effect result is “novel senolytic agent”. In the test with senescent FAPs, the “Cell viability of NS and SEN FAPs” value is on record as “specifically kills senescent FAPs”. The “Cell viability of NS and SEN mDFs, late-time point” value with senescent mDFs (25HC started 7 days after removing DMSO/Doxo) is on record as “specifically kills senescent mDFs at late-timepoint”. The “Cell viability of NS and SEN mDFs, early-time point” value with senescent mDFs (25HC started immediately after removing DMSO/Doxo) was “specifically kills senescent mDFs at early-timepoint”. On CRYAB protein [1], the “Inhibition of CRYAB / CRYAB protein aggregation (literature)” value was “effective inhibitor of CRYAB”. In addition, the “Inhibition of CRYAB protein aggregation (as asserted in the description)” value on CRYAB protein [2] was “effective inhibitor of CRYAB protein aggregation”.
